{"source": "paper PMC5575254", "about": "“An allosteric ligand-binding site in the extracellular cap of K2P channels” (Nature Communications, 2017)", "key": {"[1]": {"tested_on": "K2P channels", "set-up": "method as in PMID 9628867, PMID 8605869", "conditions": "ref [26], [27]; cited from earlier work"}, "[2]": {"biological_target": "T1, TREK-2 (Homo sapiens, UniProt P57789)", "T1 construct": "expressed in transfected cells; host or cells: CHO cells, transient transfection", "T1 sequence (P57789 1-538)": "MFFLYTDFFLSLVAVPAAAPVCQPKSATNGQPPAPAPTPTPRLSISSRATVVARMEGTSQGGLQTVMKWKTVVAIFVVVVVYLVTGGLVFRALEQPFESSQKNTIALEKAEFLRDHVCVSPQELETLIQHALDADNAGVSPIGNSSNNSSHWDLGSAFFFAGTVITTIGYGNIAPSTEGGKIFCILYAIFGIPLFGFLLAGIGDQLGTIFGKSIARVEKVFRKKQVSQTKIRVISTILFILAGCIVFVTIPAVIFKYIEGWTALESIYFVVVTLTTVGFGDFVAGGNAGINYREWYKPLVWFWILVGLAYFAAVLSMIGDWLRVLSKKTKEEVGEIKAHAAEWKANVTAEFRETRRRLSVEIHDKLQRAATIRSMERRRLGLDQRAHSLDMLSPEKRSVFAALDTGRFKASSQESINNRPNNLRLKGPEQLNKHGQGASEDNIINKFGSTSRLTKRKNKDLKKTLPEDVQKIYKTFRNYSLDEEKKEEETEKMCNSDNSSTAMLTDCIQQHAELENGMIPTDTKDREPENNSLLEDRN", "assay": "Whole-cell voltage clamp of CHO cells expressing TREK-2", "format": "cell-based", "conditions": "mean ± s.e.m", "excerpt": "(§1) cDNA of the human TREK-1, TREK-2 and TRAAK channels were subcloned into the pEGFPN1 expression vector (Invitrogen), respectively. Mutations were introduced into TREK-1 or TRAAK by PCR using the QuickChange XL sitedirected mutagenesis kit (Agilent Technologies) and were subsequently confirmed by DNA sequencing.\n(§2) Chinese hamster ovary (CHO) cells were provided by the Cell Bank of Chinese Academy of Sciences (Shanghai, China). CHO cells were maintained in DMEM/F12 (Gibco) supplemented with 10% fetal bovine serum (Gibco) and 100 μg ml^−1 penicillin-streptomycin (Cellgro) in a humidified incubator at 37 °C (5% CO2). For electrophysiology experiments, cells plated in 35 mm tissue culture dishes (Corning Incorporated) were transiently transfected with the plasmids using PolyJet™ reagent (SignaGen) according to the manufacturer’s instructions. Primers used in this study are listed in Supplementary Table 4.\n(§3) All electrophysiological recordings were obtained using patch-clamp recordings in two different configurations: (1) whole cell for macroscopic current dose–response curves; and (2) outside-out and inside-out for macroscopic currents recordings.\n(§4) All patch-clamp recordings were conducted 36–96 h after transfection with an Axopatch-200B amplifier (Molecular Devices) at room temperature (23–25 °C). The microelectrodes fashioned from 1.5 mm thin-walled borosilicate glass with filament were pulled from Flaming/Brown type micropipette puller (P-97; SUTTER INSTRUMENT) with the resistances of 3–7 MΩ (whole cell) or 7–15 MΩ (outside-out) when filled with a solution containing (in mM): 140 KCl, 2 MgCl2, 10 EGTA, 1 CaCl2, 10 HEPES (pH 7.3, adjusted with KOH). External solution contained (in mM): 150 NaCl, 5 KCl, 0.5 CaCl2, 1.2 MgCl2, 10 HEPES (pH 7.3, adjusted with NaOH). The current signals were filtered at 1 kHz and digitized at a 10 kHz sampling frequency by using DigiData 1440 A.\n(§5) Data of whole-cell voltage clamp experiments were fitted using doseResp function. The half inhibition concentrations were derived from fits of the dose–response curves to the function:1 I/I0=A1+A2-A1/1+10^logx0-xP, where I 0 and I are current amplitudes before and after application of inhibitors; A 1 and A 2 are constants between 0 and 1; x is the concentration of inhibitor; x o is the concentration when 50% inhibition was reached (IC50), P is the Hill constant."}, "[3]": {"biological_target": "T2, TRAAK (Homo sapiens, UniProt Q9NYG8)", "T2 construct": "expressed in transfected cells; host or cells: CHO cells, transient transfection", "T2 sequence (Q9NYG8 1-393)": "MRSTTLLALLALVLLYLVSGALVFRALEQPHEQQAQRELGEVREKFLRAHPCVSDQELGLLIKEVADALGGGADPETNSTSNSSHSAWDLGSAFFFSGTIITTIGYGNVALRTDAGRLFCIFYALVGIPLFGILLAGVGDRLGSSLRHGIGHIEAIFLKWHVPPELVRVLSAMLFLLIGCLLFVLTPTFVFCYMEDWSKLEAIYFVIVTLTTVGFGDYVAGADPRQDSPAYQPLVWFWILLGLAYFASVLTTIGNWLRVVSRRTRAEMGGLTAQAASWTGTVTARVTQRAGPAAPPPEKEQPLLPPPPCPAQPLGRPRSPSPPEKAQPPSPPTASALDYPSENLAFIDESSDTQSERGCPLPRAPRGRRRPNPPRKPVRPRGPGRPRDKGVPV", "assay": "Whole-cell voltage clamp of CHO cells expressing TRAAK", "format": "cell-based", "conditions": "for IC50: whole-cell, CHO cells, WT TRAAK, mean ± s.e.m", "excerpt": "as §1, §2, §3, §4, §5"}, "[4]": {"biological_target": "T3, TREK-1 channel (Homo sapiens, UniProt O95069)", "T3 construct": "expressed in transfected cells; host or cells: CHO cells, transient transfection", "T3 sequence (O95069 1-411 isoform O95069-2)": "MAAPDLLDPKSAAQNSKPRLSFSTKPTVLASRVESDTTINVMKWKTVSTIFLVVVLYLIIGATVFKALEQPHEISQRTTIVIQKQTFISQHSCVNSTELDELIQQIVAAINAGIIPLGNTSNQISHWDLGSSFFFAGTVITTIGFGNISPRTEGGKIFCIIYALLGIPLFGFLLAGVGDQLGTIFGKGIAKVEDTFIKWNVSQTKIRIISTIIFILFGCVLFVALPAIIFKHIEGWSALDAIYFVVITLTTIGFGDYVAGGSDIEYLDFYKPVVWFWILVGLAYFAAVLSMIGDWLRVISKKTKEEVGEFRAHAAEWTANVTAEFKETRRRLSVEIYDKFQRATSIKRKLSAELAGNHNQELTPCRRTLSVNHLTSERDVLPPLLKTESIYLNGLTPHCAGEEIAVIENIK", "assay": "Whole-cell voltage clamp of CHO cells transiently transfected with TREK-1", "format": "cell-based", "conditions": "whole-cell, CHO cells, WT TREK-1, mean ± s.e.m; for IC50: read-out: half-maximal inhibition concentration (IC50), TREK-1", "excerpt": "as §1, §2, §3, §4, §5"}, "[5]": {"tested_on": "TREK channels", "conditions": "ref [7], [16]; cited from earlier work"}, "[6]": {"tested_on": "mice", "assay": "Forced swimming test", "format": "in vivo, Male C57BL/6 mice", "conditions": "chronic i.p. administration 10 days; TKDC 0.5, 1, 5 mg kg-1; fluoxetine 10 mg kg-1; vs vehicle", "description": "Male C57BL/6 mice, aged 8 weeks (weighing 18–20 g) were used for acute and chronic drug administration and behavioral tests. The mice were housed four per cage under a 12-h light–dark cycle. Mice were raised under stable conditions with food and water ad libitum. All animal studies and experimental procedures were approved by the Animal Care Committees of the Shanghai Institute of Materia Medica, Chinese Academy of Sciences, and experiments were carried out in accordance with EU Directive 2010/63/EU on the protection of animals used for scientific purposes. […] The mice were removed to a sound-attenuating testing room 3–4 h before testing. The behavioral tests were carried out 30 min and 24 h after acute and chronic drugs administration, respectively.\nThe mice were performed under normal light. The apparatus was a transparent Plexiglas cylinder with 30 cm height × 10 cm diameter and the water temperature at 23–25 °C were set to prevent mice from touching the bottom with their limbs. Mice were allowed to swim for 8 min, and their activity was videotaped. There was an extra 15-min swimming in the previous day. The duration of immobility defined as floating or remaining motionless was assessed. To avoid extremely active at the beginning of swimming, the first 2 min of swimming was also excluded as the tail suspension test. […]"}, "[7]": {"tested_on": "TREK-1", "set-up": "method as in Braun et al. [22]", "conditions": "ref Braun et al. [22]; cited from earlier work"}, "[8]": {"tested_on": "TASK-3", "set-up": "method as in PMID 25409575, PMID 18417474, PMID 12606773, PMID 16513667", "conditions": "binds E70; ref [22]-[25]; cited from earlier work"}, "[9]": {"tested_on": "TREK-2", "set-up": "method as in PMID 25409575, PMID 18417474, PMID 12606773, PMID 16513667", "conditions": "binds D135; ref [22]-[25]; cited from earlier work"}, "[10]": {"tested_on": "I110D TREK-1 mutant", "set-up": "method as in PMID 25409575", "conditions": "ref [22]; cited from earlier work"}, "[11]": {"tested_on": "TREK-1", "set-up": "method as in earlier work", "conditions": "ref [2] Borsotto M, et al. (2015); cited from earlier work"}}}
{"compound": "Nc1ccncc1", "note": "[4-aminopyridine]", "values": [{"measurement": "sensitivity of K2P channels to classical potassium channel pore blockers", "setting": "[1]", "value": "insensitivity"}]}
{"compound": "O=C(CNc1ccc(Cl)cc1)N1CCc2ccccc2C1", "note": "[28NH, 2-((4-chlorophenyl)amino)-1-(3,4-dihydroisoquinolin-2(1H)-yl)ethanone]", "values": [{"measurement": "IC50, TREK-2", "setting": "[2]", "value": "comparable to those observed for TKDC-induced inhibitions"}, {"measurement": "IC50 for TRAAK relative to the value obtained with TKDC", "setting": "[3]; 28NH vs TKDC", "value": "almost sevenfold lower"}, {"measurement": "IC50", "setting": "[3]", "value": "11.8 ± 2.1", "unit": "µM"}, {"measurement": "half-maximal inhibition concentration (IC50), TREK-1", "setting": "[4]", "value": "comparable to those observed for TKDC-induced inhibitions"}]}
{"compound": "COc1ccccc1C(=O)Nc1cc(C(C)C)ccc1O", "note": "[TKN1]", "values": [{"measurement": "IC50", "setting": "[2]", "value": "4.4 ± 1", "unit": "µM"}, {"measurement": "IC50", "setting": "[3]", "value": "15.7 ± 3.1", "unit": "µM"}, {"measurement": "IC50", "setting": "[4]", "value": "6.5 ± 1.7", "unit": "µM"}]}
{"compound": "Cc1cc(NC(=O)c2cccs2)cc(-c2nc3ccccc3o2)c1O", "note": "[TKN2]", "values": [{"measurement": "IC50", "setting": "[2]", "value": "1.7 ± 0.8", "unit": "µM"}, {"measurement": "IC50", "setting": "[3]", "value": "10.3 ± 1.5", "unit": "µM"}, {"measurement": "IC50", "setting": "[4]", "value": "3.8 ± 0.6", "unit": "µM"}]}
{"compound": "[Cs+]", "note": "[cesium ion]", "values": [{"measurement": "sensitivity of K2P channels to classical potassium channel pore blockers", "setting": "[1]", "value": "insensitivity"}]}
{"compound": "CNCCC(Oc1ccc(C(F)(F)F)cc1)c1ccccc1", "note": "(centres unmarked) [fluoxetine, reference compound]", "values": [{"measurement": "effect on TREK channels", "setting": "[5]", "value": "can also inhibit TREK channels"}, {"measurement": "immobility in the forced swimming test", "setting": "[6]", "value": "did not show antidepressant effects"}]}
{"compound": "N.N.N.N.N.N.N.N.N.N.N.N.N.N.[Cl-].[Cl-].[Cl-].[Cl-].[Cl-].[Cl-].[O-2].[O-2].[Ru+3].[Ru+3].[Ru+4]", "note": "[ruthenium red]", "values": [{"measurement": "sensitivity of TREK-1", "setting": "[7]", "value": "not sensitive"}, {"measurement": "effect on TASK-3", "setting": "[8]", "value": "inhibit"}, {"measurement": "effect on TREK-2", "setting": "[9]", "value": "inhibit"}, {"measurement": "effect on I110D TREK-1 mutant", "setting": "[10]", "value": "inhibits"}]}
{"compound": "CC[N+](CC)(CC)CC", "note": "[tetraethylammonium]", "values": [{"measurement": "sensitivity of K2P channels to classical potassium channel pore blockers", "setting": "[1]", "value": "insensitivity"}]}
{"compound": "spadin", "values": [{"measurement": "effect on TREK-1", "setting": "[11]", "value": "specifically blocks the TREK-1"}]}
